What all share (assay): growth of human tumour cells (NCI), 48 h
For assay [1], the system named is HOP-92 NSCLC.
For assay [2], the system named is CAKI-1 renal.
Assay [3] has as its system OVCAR-3 ovarian.
Assay [4] concerns SK-MEL-28 melanoma.
Assay [5] has as its system ACHN renal.
Assay [6] has as its system OVCAR-5 ovarian.
Assay [7] concerns NCI-H522 lung.
In assay [8] the test system is NCI-H23 lung.
In assay [9] the test system is COLO 205 colon.

The structures appear in SMILES notation.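 Exposure lasted 48 hours, with cells grown in 96-well plates and compounds tested at five concentrations. GI50: concentration for 50% inhibition of growth. Definition used: TGI = concentration required for complete inhibition of growth.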

Take `CC(=O)Nc1ccc(/C=c2\sc3nnc(CCC(=O)Nc4ccccc4Cl)n3c2=O)cc1`: the TGI is 57.7 µM in [1]; more than 100 µM in assay [2]; 47.4 µM in assay [3]; 56.5 µM in assay [4]; more than 100 µM in [5]; more than 100 µM in assay [6]. The TGI was 36.2 µM in assay [7] and more than 100 µM in assay [8].

For the molecule `N.N.NCCCCCN.O=C([O-])CCl.O=C([O-])CCl.O=C([O-])CCl.O=C([O-])CCl.[Pt+4].[Pt+4]`, the GI50 in assay [1] was 23.7 µM; in [2] it was 1.2 µM; in assay [3], 17 µM; in assay [4] it was 23.2 µM; in [9], 1.78 µM; in assay [5], 3.39 µM. The GI50 was 5.54 µM in assay [6] and 3.3 µM in assay [7]. The TGI was 51.6 µM in assay [1]; 7.55 µM in [2]; 49.2 µM in [3]; 73.8 µM in assay [4]; 8.45 µM in assay [9]; 29.9 µM in assay [5]. The TGI in [6] was 48.9 µM; in assay [7] it was 73.8 µM.

Turning to `Cc1cc([N+](=O)[O-])ccc1NC(=O)C(=O)C(C(=O)c1ccccc1-c1ccccc1)C1OC(=O)c2ccccc21` (centres undefined), the TGI in assay [1] was 34 µM; in assay [2] it was 59.5 µM; in assay [4], more than 100 µM; in [9] it was 41.8 µM; in assay [5] it was more than 100 µM; in [6], 28.9 µM. For the same molecule, the TGI was found to be 26.2 µM in [7] and 80 µM in [8].

Take `COc1c(C)cc(O)cc1C=O`: the TGI in assay [1], in assay [2], in [3], in assay [4], in assay [9] and in assay [5] was more than 100 µM throughout. For the same molecule, the TGI in assay [6] and in assay [7] was more than 100 µM each time.

Take `Cc1cc([N+](=O)[O-])ccc1Sc1c2ccccc2nc2cc(Cl)ccc12`: the TGI in assay [1] was 76.6 µM; in assay [2], 84 µM; in assay [3], more than 100 µM; in assay [4], more than 100 µM; in assay [9], more than 100 µM; in [5], more than 100 µM. In addition, the TGI in assay [6] was more than 100 µM; in assay [7] it was 78.7 µM; in assay [8], 76.9 µM.

Regarding `COC(=O)C(Cc1nc2ccccc2[nH]c1=O)/C(=N\NC(C)(C)C)C(=O)Nc1c(C)cc(Br)cc1C` (centres undefined), the TGI in assay [1] was 45.5 µM; in [2] it was 88.9 µM; in assay [4] it was 51.8 µM; in assay [9], 36.5 µM; in [5], more than 100 µM; in assay [6], more than 100 µM. In addition, the TGI in assay [7] amounted to 29 µM; in assay [8], 78 µM.

With `COc1ccc(C(CCC(C)=O)C(=O)O)cc1OC` (centres undefined), the TGI in assay [1], in [2], in [3], in [4], in assay [9] and in assay [5] was more than 100 µM each time. Further, the TGI in assay [6] and in assay [8] was more than 100 µM each time.

For `C#CCNC(=O)N(CC#C)N=O`, the TGI in assay [1], in assay [2], in [3], in assay [4], in [5] and in assay [6] was more than 100 µM in each case. Moreover, the TGI is 41.6 µM in assay [7] and more than 100 µM in assay [8].

Turning to `c1ccc([CH2][Sn]([CH2]c2ccccc2)([O]c2cccc3cccnc23)[O]c2cccc3cccnc23)cc1`, the GI50 was 1.19 µM in assay [1]; 0.92 µM in assay [2]; 0.3 µM in [3]; 0.193 µM in assay [4]; 0.194 µM in [9]; 1.03 µM in assay [5]. Besides, the GI50 was 0.338 µM in assay [6], 0.186 µM in assay [7] and 0.508 µM in [8]. Further, the TGI in [1] was 2.46 µM; in [2] it was 2.2 µM; in assay [3], 0.949 µM; in assay [4] it was 0.963 µM; in assay [9], 0.477 µM; in [5], 2.2 µM. The TGI came out at 1.06 µM in [6], 0.351 µM in assay [7] and 1.84 µM in assay [8].

With `CCN(CC)CC(C)(C)C(=O)/C=C/c1cccc(/C=C/C(=O)C(C)(C)CN(CC)CC)c1`, the TGI amounted to 1.68 µM in [1]; 0.965 µM in assay [2]; 2.31 µM in [3]; 2.75 µM in assay [4]; 0.821 µM in assay [9]; 2.38 µM in assay [5]. Moreover, the TGI in assay [6] was determined as 2.98 µM; in assay [8] it was 2.7 µM.

On to `COc1ccccc1NC(=O)C1=C(C)NC(C)=C(C(=O)Nc2ccccc2OC)C1C1=CC=COC1`, for which the TGI in assay [1] was 83.8 µM; in [2], 56.8 µM; in assay [3], 9.5 µM; in [4], 74 µM; in assay [9], more than 100 µM; in assay [5], more than 100 µM. The TGI in [6] and in assay [8] was more than 100 µM in each case.

On to `CC1=Nc2ccccc2NC(c2ccoc2)C1` (centres undefined), for which the TGI in [1], in assay [2], in assay [3], in assay [4], in assay [9] and in [5] was more than 100 µM each time. Further, the TGI in assay [6], in assay [7] and in [8] was more than 100 µM in each case.

`COC(=O)C(=O)C(C(=O)C(=O)Nc1cccc(C(C)=O)c1)c1nc2ccc([N+](=O)[O-])cc2[nH]c1=O` (centres undefined): the TGI in assay [1], in assay [2], in [4], in assay [9], in [5] and in [6] was more than 100 µM in each case. Further, the TGI in assay [7] and in [8] was more than 100 µM each time.

Take `O=C1/C(=C\c2ccc(F)cc2)CN(C(=O)c2ccccc2)C/C1=C\c1ccc(F)cc1`: the GI50 in [1] is 1.48 µM; in assay [2], 2.82 µM; in assay [4] it was 2.24 µM; in assay [9], 3.15 µM; in assay [5] it was 1.75 µM; in [6], 2.64 µM. Also, the GI50 in [7] was 2.35 µM; in [8], 4.83 µM. In addition, the TGI in assay [1] worked out at 9.1 µM; in [2] it was 66.2 µM; in assay [4] it was 5.88 µM; in assay [9] it was 10 µM; in assay [5], 3.77 µM; in [6] it was 11.7 µM. Moreover, the TGI in assay [7] is 7.73 µM; in assay [8] it was 21.8 µM.

`O=[N+]([O-])c1ccc(C2CC(c3ccccc3Cl)=Nc3ccccc3S2)cc1` (centres undefined): the TGI in assay [1] is 29.5 µM; in assay [2], more than 73.5 µM; in assay [3] it was 34.2 µM; in assay [4], 22.7 µM; in [9] it was more than 57.6 µM; in assay [5], 42.9 µM. The results for the TGI in assay [6], in assay [7] and in assay [8] were 62.7 µM, 8.16 µM and 10.8 µM, respectively.

`C[C@]12CCc3nc(Nc4cccc(O)c4)sc3C1=CC[C@@H]1[C@@H]2CC[C@]2(C)/C(=N\NC(N)=S)CC[C@@H]12`: the GI50 in [1] was 2.02 µM; in [2] it was 1.64 µM; in [3], 1.4 µM; in assay [9], 1.91 µM; in [5], 2.15 µM; in assay [6] it was 2.6 µM. Besides, the GI50 in [7] was 1.7 µM; in assay [8] it was 2.78 µM. The TGI in [1] came to 7.6 µM; in assay [2], 3.26 µM; in [3], 2.87 µM; in [9] it was 3.61 µM; in assay [5] it was 6 µM; in [6], 7.77 µM. Moreover, the TGI in [7] came out at 3.69 µM; in [8], 8.96 µM.

In the case of `COC(=O)C1=Cc2cc(OC)c(OC)c(OC)c2[C@H](c2cc(OC)c(OC)c(OC)c2)C1C(=O)OC` (some centres undefined), the TGI in assay [1] is 74.5 µM; in assay [2], more than 100 µM; in assay [3], more than 100 µM; in assay [4], more than 100 µM; in assay [9] it was more than 100 µM; in assay [5] it was more than 100 µM. The TGI in assay [6], in assay [7] and in assay [8] was more than 100 µM in each case.

On to `O=C1/C(=N\O)c2ccccc2S1(=O)=O`, for which the TGI in assay [1] was more than 100 µM; in assay [2] it was 83.7 µM; in assay [9] it was 73.6 µM; in [5], more than 100 µM; in assay [6] it was more than 100 µM; in assay [7], more than 100 µM.

With `CC(=O)Nc1ccccc1-c1nc2ccccc2nc1C`, the TGI in assay [1], in assay [2], in assay [3], in assay [4], in [9] and in assay [5] was more than 100 µM each time. The TGI in assay [6], in assay [7] and in [8] was more than 100 µM throughout.

The record behind these values is PubChem BioAssay (NCI).
